Assay [1] deals with rats. The assay is described as follows: FCA induced hypersensitivity rat model (intraplantar FCA, weight bearing). Type of assay: in vivo. To be noted: 1 hour post dose; for weight bearing % reversal: 10 mg/kg p.o., 24 hrs after FCA. As for the experimental part:
(§1) Naïve weight bearing readings were taken. The hypersensitivity to pain was measured using the Rat incapacitance tester (Linton instruments). All rats (180-220 g) received an intraplantar injection of 100 ul of FCA (Freund's complete adjuvant) into the left hind paw. The FCA was sonicated for 15 minutes prior to use. 24 hrs after administration of the FCA, pre-dose weight bearing readings were taken. All animals were then ranked and randomised for dosing according to their FCA window (predose difference in grams—naïve difference in grams). Rats with FCA window less than 30 were excluded from the study.
Animals were then dosed orally with either vehicle, SB42457 (0.01, 0.1, 1 and 10 mg/kg p.o.) or celecoxib (10 mg/kg p.o.) as appropriate according to ranking and randomisation. Animals were assessed in the weight bearing apparatus 1 hour post dose.
The study was blind and randomised by FCA window using the Latin square method. % reversals were calculated by using the naïve, pre-dose and post dose values as follows: % Reversal=[(Pre-dose−Post-dose)/(Pre-dose−Naïve)]×100.
Graphs were plotted using Prism3. Statistical analysis was carried out using ANOVA and Fischer LSD test from statistical package Statistica 6.
In this study a positive control was also tested (celecoxib).
as §1, with “(200-220” for “(180-220”
Animals were then dosed orally with vehicle, SB-792988-A (0.01, 0.1, 1 and 10 mg/kg p.o.), SB-399885-A (10 mg/kg p.o.) or celecoxib (10 mg/kg p.o.) as appropriate according to ranking and randomisation. Animals were assessed in the weight bearing apparatus 1 hour post dose.
Graphs and were plotted using Prism3. Statistical analysis was carried out using ANOVA and Fischer LSD test from statistical package Statistica 6.

The subject of assay [2] is male Sprague Dawley rats. In words: rat intra rectal mustard oil model of visceral pain. It is filed as in vivo. The following applies: behaviours counted 25 minutes. As for the experimental part:
All behavioural responses consistent with the presence of pain were determined following intra rectal injection of mustard oil in male Sprague Dawley rats. Typical behavioural responses consistent with the presence of pain following intra-colonic mustard oil injection include: arching, abdominal lifting, abdominal tensing, stretching, extending the rear leg (when lying down), raising and lowering the testicles, tip-toeing and writhing.
Male Sprague Dawley rats (130 g-160 g) were briefly sedated with 50% oxygen/50% carbon dioxide and 0.2 ml of 3% mustard oil injected into the colorectum, 1.5 cm from the anus. The anus was plugged with vaseline and animals placed in observational cages to which they had previously been acclimatised for 45 minutes prior to mustard oil injection. The number of visceral pain related behaviours, which consisted primarily of abdominal arching, were counted over a 25 minute period and the animals culled by cervical dislocation.
In separate studies, the effects of alosetron (0.1, 0.3 and 1.0 mg/kg n=10 per group), gabapentin (10, 30 and 100 mg/kg n=10 per group) and amitriptyline (3, 10 and 30 mg/kg n=9-10 per group) or vehicle (saline for alosetron and amitriptyline 10% 1-Methyl-2-pyrolidone in saline for gabapentin n=10 per study) given sub cutaneously 15 minutes prior to injection of 3% mustard oil were examined on pain behaviour. Results in FIGS. 4, 5 and 6 are expressed as mean±sem percentage of behaviours compared to vehicle treated animals and were statistically compared to vehicle treated animals using a one way ANOVA with Dunnett's comparison, p<0.05 considered significant.
The effect of SB742457 (0.03, 0.1, 1.0, 3.0 and 10 mg/kg, n=10 per group for the 0.03, 0.1 and 10 mg/kg groups, and n=20 for the 1.0 and 3.0 mg/kg groups) or vehicle (saline n=20) given orally 60 minutes prior to injection of mustard oil (3% mustard oil, 70% ethanol in saline) were examined on pain behaviour. The total number of visceral pain related behaviours, which consisted primarily of abdominal arching, were counted over a 25 minute period and the animals culled by cervical dislocation. Behaviours were normalised as the percentage of the vehicle group mean and expressed as mean+/−sem. Data was combined from two studies and normalised as the percentage of the vehicle group mean for each individual study and expressed as mean+/−sem for both studies. Percentage of behaviours compared to vehicle treated animals were analysed statistically using a one way ANOVA with Dunnett's comparison, p<0.05 considered significant, FIG. 10.
The effect of SB792988A (0.03, 0.1, 0.3, 1.0, 3.0 and 10 mg/kg, n=9 for 1.0 mg/kg, n=10 per group for the 0.03, 0.1 and 3.0 mg/kg groups, n=20 per group for the 0.3 and 10 mg/kg groups) or vehicle (saline n=20) given orally 60 minutes prior to injection of mustard oil (3% mustard oil, 70% ethanol in saline) were examined on pain behaviour. The total number of visceral pain related behaviours, which consisted primarily of abdominal arching, were counted over a 25 minute period and the animals culled by cervical dislocation. Behaviours were normalised as the percentage of the vehicle group mean and expressed as mean+/−sem. Data was combined from two studies and normalised as the percentage of the vehicle group mean for each individual study and expressed as mean+/−sem for both studies. Percentage of behaviours compared to vehicle treated animals were analysed statistically using a one way ANOVA with Dunnett's comparison, p<0.05 considered significant, FIG. 11.

For assay [3], the system named is Random Hooded rats. The assay is described as follows: rat joint pain model of chronic inflammatory pain (intra-articular FCA, hind paw weight bearing). It is filed as in vivo. To be noted: for Statistics for hypersensitivity data (weight bearing), significance vs vehicle, Day 14: Day 14 post FCA; for Statistics for hypersensitivity data (weight bearing), significance vs vehicle, Day 15: Day 15 post FCA; for Statistics for hypersensitivity data (weight bearing), significance vs vehicle, Day 17: Day 17 post FCA. As for the experimental part: Random Hooded rats, 150-180 g, obtained from Charles River UK, were anaesthetised under gaseous anaesthetic and the area surrounding the left and right knee joint shaved and cleaned as for aseptic surgery. Animals were injected with 150 μl of FCA into the left knee joint (intra-articular injection). Animals were immediately allowed to recover from anaesthetic in a warmed/oxygenated environment until being returned to their home cage on paper bedding. No further post-op care was provided.
Rats were tested prior to surgery and from 18 h post FCA (minimum of once weekly) for weight bearing (g) and joint diameter (mm). Weight bearing is measured by the animal's ability to place body weight across both hind paws on a Dual Channel Weight Averager which was calibrated each day prior to use using a 10 g weight (Rat capacitance tester—Linton Instruments). Hind paw weight bearing data was calculated and expressed as the percentage of the contralateral paw.
All data were expressed as mean±s.e.m.
Prior to FCA intra-articular injection into the left knee, rats display even weight bearing. By day 1 post-insult weight bearing had shifted such that the majority of the body weight was transmitted through the contralateral limb. By day 10 this effect was maintained and at this point animals were randomised across treatment groups. Once daily dosing with vehicle, SB742457 or celecoxib began on day 13 and continued up to and including day 17.
Rats were tested prior to surgery and from 18 h post FCA (minimum of once weekly) for weight bearing (g) and joint diameter (mm). Weight bearing is measured by the animal's ability to place body weight across both hind paws on a Dual Channel Weight Averager which was calibrated each day prior to use using a 100 g weight (Rat capacitance tester—Linton Instruments). Hind paw weight bearing data was calculated and expressed as the percentage of the contralateral paw.
Prior to FCA intra-articular injection into the left knee, rats display even weight bearing. By day 1 post-insult weight bearing had shifted such that the majority of the body weight was transmitted through the contralateral limb. By day 10 this effect was maintained and at this point animals were randomised across treatment groups. Once daily dosing with vehicle, SB792988A or celecoxib began on day 13 and continued up to and including day 17. […] AUC was calculated using Microsoft Excel.

The subject of assay [4] is rats. In words: Chronic Constriction Injury (CCI) model of neuropathic pain in rats (mechanical allodynia, Von Frey hairs). Type of assay: in vivo, rat. The following applies: 30 mg/kg b.i.d. po. As for the experimental part: Under Isoflurane anaesthesia, the sciatic nerve in the left leg of the rat was exposed at mid thigh level and 4 loose ligatures of Chromic 4.0 gut tied around it. The wound was closed and secured with staples. The Sham operated animals underwent the same surgical technique except that the nerve was not ligated. […] The presence of mechanical (tactile) allodynia was assessed using the manual application of Von Frey hair monofilaments (Stoelting, Wood Dale, Ill., USA). Animals were placed in clear Perspex boxes on a raised perforated metallic platform, from below which the monofilaments were applied in ascending order to the plantar region of the hind paw (range: 1.4 g-26 g). Each hair was applied for approx. 3-5 seconds until a withdrawal response was observed. The lowest hair to give a withdrawal was recorded as the response after confirmation with reapplication of lower and/or higher hairs within the range tested.
All data are expressed as mean±s.e.m. Statistical analysis was carried out using Repeated Measures ANOVA (Statistica Version 6) to compare the vehicle treated groups with the drug treated groups (P<0.05 considered significant). Area Under Curve (AUC) calculations were performed within Excel and statistical analysis was carried out using a one-way ANOVA followed by Fischer LSD post-hoc test (Statistica Version 6) to compare the vehicle treated CCI and Sham groups with the drug treated groups (P<0.05 considered significant). Data recorded in Excel (Microsoft XP) and graphs produced in GraphPad Prism (Version 4).
By 8 days post-surgery neuropathy was beginning to develop as mechanical allodynia (assessed using mVFHs) was evident in all CCI operated groups compared to the Sham operated animals. This was maintained as a stable baseline until day 23 post-surgery (FIG. 12), when the animals were randomised and then chronically dosed with either SB742457 (10 mg/kg b.i.d. po), gabapentin (30 mg/kg b.i.d. po) or vehicle (1% methylcellulose; b.i.d. po) for 8 days (days 26-33 post-surgery). […] Three days after cessation of treatment the withdrawal thresholds of the drug treated groups had decreased back towards vehicle treated baseline levels.

The mark [5] stands for this setting: 10 mg/kg sub cutaneously 15 minutes prior to 3% mustard oil.
The mark [6] stands for this setting: 30 mg/kg sub cutaneously 15 minutes prior to 3% mustard oil.
Where [7] appears, read: 30 mg/kg oral once daily from day 13, SB742457 study.
Where [8] appears, read: 30 mg/kg oral once daily from day 13, SB792988A study.

In the case of `COc1ccc(S(=O)(=O)Nc2cc(Cl)cc(Cl)c2OC)cc1N1CCNCC1.Cl` [SB399885A, N-(3,5-dichloro-2-methoxy-phenyl)-4-methoxy-3-piperazin-1-yl-benzenesulfonamide hydrochloride, reference compound], the “weight bearing % reversal” value in assay [1] (Table 7) came out at 15.26 ± 5.70%. Besides, the “effect on FCA induced hypersensitivity” value in assay [1] (p.o., intraplantar FCA) was “no effect”.

Consider `Cc1[nH]cnc1CN1CCc2c(c3ccccc3n2C)C1=O` [alosetron, reference compound], for which the “reduction in behaviours compared to vehicle treated animals” value (“reduction in behaviours” for short) in assay [2] (0.1 mg/kg sub cutaneously 15 minutes prior to 3% mustard oil) came to 56%; in assay [2] (0.3 mg/kg sub cutaneously 15 minutes prior to 3% mustard oil), 56%; in assay [2] (1.0 mg/kg sub cutaneously 15 minutes prior to 3% mustard oil) it was 54%.

`CN(C)CCC=C1c2ccccc2CCc2ccccc21` [amitriptyline, reference compound]: the “reduction in behaviours” value is on record as 43% in assay [2] (3 mg/kg sub cutaneously 15 minutes prior to 3% mustard oil), 73% in assay [2] (setting [5]) and 91% in assay [2] (setting [6]).

Regarding `Cc1ccc(-c2cc(C(F)(F)F)nn2-c2ccc(S(N)(=O)=O)cc2)cc1` [celecoxib, reference compound], in assay [1] (Table 5), the “weight bearing % reversal” value amounted to 74.81 ± 8.79%. Also, the “weight bearing % reversal” value in assay [1] (Table 7) was found to be 73.00 ± 6.01%. In addition, in assay [3] (30 mg/kg oral once daily days 13-17, AUC, SB742457 study), the “Statistics for hypersensitivity data, significance vs vehicle, AUC” value was “*** (*** = p < 0.001)”. Also, in assay [3] (30 mg/kg oral once daily from day 13, Day 13 post FCA, SB742457 study), the “Statistics for hypersensitivity data (weight bearing), significance vs vehicle, Day 13” value is “* (* = p < 0.05)”. In assay [3] (setting [7]), the “Statistics for hypersensitivity data (weight bearing), significance vs vehicle, Day 14” value is “*** (*** = p < 0.001)”; the “Statistics for hypersensitivity data (weight bearing), significance vs vehicle, Day 15” value is “*** (*** = p < 0.001)”; the “Statistics for hypersensitivity data (weight bearing), significance vs vehicle, Day 17” value is “*** (*** = p < 0.001)”. In assay [3] (setting [8]), the “Statistics for hypersensitivity data (weight bearing), significance vs vehicle, Day 14” value is “* (* = p < 0.05)”; the “Statistics for hypersensitivity data (weight bearing), significance vs vehicle, Day 15” value is “*** (*** = p < 0.001)”; the “Statistics for hypersensitivity data (weight bearing), significance vs vehicle, Day 17” value was “*** (*** = p < 0.001)”. The “Statistics for hypersensitivity data (weight bearing), significance vs vehicle, Day 16” value in assay [3] (30 mg/kg oral once daily from day 13, Day 16 post FCA, SB792988A study) is reported as “*** (*** = p < 0.001)”.

Regarding `NCC1(CC(=O)O)CCCCC1` [gabapentin, reference compound], the “reversal of mechanical allodynia after 5 days of dosing” value in assay [4] (after 5 days of dosing) is reported as “not significantly different to Sham levels”. Further, the “reversal of mechanical allodynia after 8 days of dosing” value in assay [4] (after 8 days of dosing) is reported as “maximal reversal (P<0.001) back to Sham levels”. Moreover, the entries for the “reduction in behaviours” value in assay [2] (setting [5]), in assay [2] (setting [6]) and in assay [2] (100 mg/kg sub cutaneously 15 minutes prior to 3% mustard oil) were 28%, 50% and 69%, respectively.

The values are drawn from US20100041672A1, “USE OF QUINOLINE DERIVATIVES IN THE TREATMENT OF PAIN AND IRRITABLE BOWEL SYNDROME” (GLAXO GROUP LIMITED, priority 2007, published 2010).
